Experimental findings from US20230348376A1 (TEIJIN PHARMA LIMITED, priority 2020, published 2023) are described below.

As a reminder, the EC50 is the midpoint of the concentration-response curve. Low values mean higher potency in that assay, high ones lower potency in that assay.

Experiment [1] concerns rat oligodendrocyte progenitor cells. Kind of experiment: Promotive activity of rat oligodendrocyte progenitor cell differentiation-1 (MBP gene expression, mRNA). The experiment is classed as cell-based. The note with it: Rattus norvegicus, Oligodendrocyte progenitor cell, 96 h, read-out: promotive activity at T3 base (MBP gene expression; DMSO 0%, T3 100%), 4 days, MBP/β actin mRNA. As to the method:
Regarding vitamin D derivatives, which was confirmed to act on the vitamin D receptor (VDR) in Example 352, the promotive activity of oligodendrocyte progenitor cell (OPC) differentiation was evaluated by MBP gene expression (mRNA).
A forebrain obtained from SD rat (Charles River Japan, 1 day old) was crushed with 70 μm Cell Strainer (Falcon #352350), and a cell suspension was prepared by collecting the cells in oligodendrocyte progenitor cell separation medium (20% FBS/2 mM Glutamax (Gibco #35050-061)/i mM sodium pyruvate (Gibco #11360-070)/1% penicillin-streptomycin (Invitrogen #15140-122)/DMEM (Gibco #11960-044)). The cell suspension was seeded in a poly-D-lysine coated T75 flask (Thermo Fisher Scientific #132704) and cultured for about 2 weeks. After culturing, the flask was shaken using a rotary shaker ([…] #WB-101SRC) for about 1 hour (37° C., 100 rpm), and the supernatant was discarded to remove microglia. Subsequently, oligodendrocyte progenitor cell separation medium was added to the flask, and the mixture was similarly shaken for about 22 hours (37° C., 200 rpm), and the supernatant was collected to prepare oligodendrocyte progenitor cells.
The oligodendrocyte progenitor cell prepared was suspended in a differentiation medium (2% B27 (Thermo Fisher Scientific, Inc. #17504-044)/1% penicillin-streptomycin (Invitrogen Corporation #15140-122)/10 ng/mL CNTF (PeproTech Inc. #AF-450-13)/DMEM (Gibco #11960-044)), and seeded on a 96-well plate coated with poly-L-ornithine (FUJIFILM Wako Pure Chemical Corporation #163-27421) under the condition of 0.65×10^4 cells/well, and on a 384-well plate under the condition of 2×10^3 cells/well using an automatic dispensing system (LABCYTE #Echo555). […] After culturing, the cells seeded on the 96-well plate were subjected to immunostaining against MBP using following methods: fixation (4% paraformaldehyde solution, 30 minutes, room temperature), PBS washing, membrane permeation treatment (0.1% Trion X-100 (SIGMA #X100-100ML)/PBS, 3 minutes, room temperature), blocking (3% BSA (SIGMA #A9647-10G)/PBS, 1 hour, room temperature), primary antibody reaction (MBP antibody (abcam plc #ab40390), 2.5 μg/mL, 4° C., 24 hours), PBS washing, secondary antibody reaction (Alexa488 anti-rabbit IgG (Thermo Fisher Scientific, Inc. #A-11034), 5 μg/mL, room temperature, 1 hour), PBS washing, and nuclear staining (Hoechst33342 (DOJINDO #NU043), 10 μg/mL, room temperature, 5 minutes). Subsequently, images of each well were acquired using a fluorescence microscope (KEYENCE CORPORATION #BZ-X800), the number of MBP-positive cells and Hoechst 33342-positive cells were measured using an image analysis application (KEYENCE CORPORATION #BZ-X800 Analyzer), and then the ratio (the number of MBP-positive cells/the number of Hoechst33342-positive cells) was calculated. The cells seeded on the 384-well plate were subjected to real-time PCR using Cells-to-CT 1-Step TaqMan Kit (Thermo Fisher Scientific, Inc. #A25602) and QuantStudio 12K Flex Real-Time PCR System (Thermo Fisher Scientific, Inc. #4472380). The experiment was performed in accordance with the protocol attached to the kit. MBP (Thermo Fisher Scientific, Inc. #Assay ID Rn00690616_ml) and β actin (Thermo Fisher Scientific, Inc. #Assay ID Rn00667869_ml) were used as primers, and the expression levels of each were measured and the ratio (MBP/β actin) was calculated.

Experiment [2] addresses T1, human VDR (Homo sapiens, UniProt P11473).
T1 sequence (P11473 1-427): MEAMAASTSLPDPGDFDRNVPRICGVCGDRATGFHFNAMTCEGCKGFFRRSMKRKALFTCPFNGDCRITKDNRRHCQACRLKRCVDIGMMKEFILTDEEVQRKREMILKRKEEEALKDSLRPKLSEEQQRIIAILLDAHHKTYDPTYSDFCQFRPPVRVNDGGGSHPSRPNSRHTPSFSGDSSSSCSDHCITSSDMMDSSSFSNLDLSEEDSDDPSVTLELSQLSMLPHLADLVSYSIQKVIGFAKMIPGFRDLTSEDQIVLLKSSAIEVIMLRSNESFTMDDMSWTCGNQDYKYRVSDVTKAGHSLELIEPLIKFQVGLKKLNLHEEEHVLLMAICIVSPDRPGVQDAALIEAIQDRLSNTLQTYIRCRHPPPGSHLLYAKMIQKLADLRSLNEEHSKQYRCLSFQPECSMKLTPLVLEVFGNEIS
T1 sequence (P19793 1-462 partner): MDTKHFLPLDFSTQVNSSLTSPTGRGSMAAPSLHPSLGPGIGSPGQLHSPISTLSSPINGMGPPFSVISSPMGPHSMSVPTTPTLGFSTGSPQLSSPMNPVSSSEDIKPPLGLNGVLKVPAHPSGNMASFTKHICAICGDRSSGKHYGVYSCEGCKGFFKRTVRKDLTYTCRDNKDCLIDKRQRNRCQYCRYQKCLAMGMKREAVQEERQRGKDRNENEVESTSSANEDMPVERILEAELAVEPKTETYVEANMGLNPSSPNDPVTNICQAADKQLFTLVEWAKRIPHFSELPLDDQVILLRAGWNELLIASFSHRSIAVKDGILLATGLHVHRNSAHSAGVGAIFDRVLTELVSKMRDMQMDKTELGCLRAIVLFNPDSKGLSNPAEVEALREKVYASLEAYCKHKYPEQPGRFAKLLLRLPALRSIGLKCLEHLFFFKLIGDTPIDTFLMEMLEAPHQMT
In words: Evaluation of VDR transcription activity in human osteoblasts (HOS cells), luciferase reporter. The note with it: Activity (EC50, VDR transcription activity), HOS cells transfected with human VDR, human RXRα and DR3 luciferase reporter; 21 hours. For orientation: In a reporter assay the amount or activity of a reporter protein is the signal.

For `C=C1[C@H](O)CC(=C/C=C2\CCC[C@]3(C)[C@@H]([C@H](C)CN4CC[C@H](CCC(F)F)C4)CC[C@@H]23)C[C@H]1O` [Compound B061, (1R,3R)-5-(2-((1R,3aS,7aR,E)-1-((S)-1-((S)-3-(3,3-difluoropropyl)pyrrolidin-1-yl)propan-2-yl)-7a-methyloctahydro-4H-inden-4-ylidene)ethylidene)-2-methylenecyclohexane-1,3-diol], the activation at 1 µM in experiment [1] was ≥ 20%. Also, the EC50 in experiment [2] lay in the range of 1 to 10 nM.
For `C=C1[C@H](O)CC(=C/C=C2\CCC[C@]3(C)[C@@H]([C@H](C)CN4CC[C@@H](CCC(F)F)C4)CC[C@@H]23)C[C@H]1O` [Compound B062, (1R,3R)-5-(2-((1R,3aS,7aR,E)-1-((S)-1-((R)-3-(3,3-difluoropropyl)pyrrolidin-1-yl)propan-2-yl)-7a-methyloctahydro-4H-inden-4-ylidene)ethylidene)-2-methylenecyclohexane-1,3-diol], in that order: ≥ 20% and 10 to 100 nM.
With `C[C@H](CCN1CC[C@H](CC(F)F)C1)[C@H]1CC[C@H]2/C(=C/C=C3C[C@@H](O)C[C@H](O)C3)CCC[C@]12C` [Compound B082, (1R,3R)-5-(2-((1R,3aS,7aR,E)-1-((R)-4-((R)-3-(2,2-difluoroethyl)pyrrolidin-1-yl)butan-2-yl)-7a-methyloctahydro-4H-inden-4-ylidene)ethylidene)cyclohexane-1,3-diol], the activation at 1 µM in experiment [1] is ≥ 20%. Also, the EC50 in experiment [2] was in the range of 10 to 100 nM.
For `C=C1/C(=C\C=C2/CCC[C@]3(C)[C@@H]([C@H](C)CN4CCC[C@H](C(C)(F)F)C4)CC[C@@H]23)C[C@@H](O)C[C@@H]1O` [Compound C052, (1R,3S,Z)-5-(2-((1R,3aS,7aR,E)-1-((S)-1-((S)-3-(1,1-difluoroethyl)piperidin-1-yl)propan-2-yl)-7a-methyloctahydro-4H-inden-4-ylidene)ethylidene)-4-methylenecyclohexane-1,3-diol], in experiment [1], the activation at 1 µM is ≥ 20%. In experiment [2], the EC50 lay in the range of 10 to 100 nM.
Regarding `C=C1/C(=C\C=C2/CCC[C@]3(C)[C@@H]([C@H](C)CN4CCC[C@H](C(C)(F)F)C4)CC[C@@H]23)C[C@@H](O)[C@H](C)[C@@H]1O` [Compound C054, (1R,2S,3S,Z)-5-(2-((1R,3aS,7aR,E)-1-((S)-1-((S)-3-(1,1-difluoroethyl)piperidin-1-yl)propan-2-yl)-7a-methyloctahydro-4H-inden-4-ylidene)ethylidene)-2-methyl-4-methylenecyclohexane-1,3-diol], the activation at 1 µM in experiment [1] was ≥ 20%. Also, in experiment [2], the EC50 lay within 10 to 100 nM.
In the case of `C=C1/C(=C\C=C2/CCC[C@]3(C)[C@@H]([C@@H](C)CN4CCOCC4)CC[C@@H]23)C[C@@H](O)[C@H](C)[C@@H]1O` [Compound D003, (1R,2S,3S,Z)-2-methyl-5-(2-((1R,3aS,7aR,E)-7a-methyl-1-((R)-1-morpholinopropan-2-yl)octahydro-4H-inden-4-ylidene)ethylidene)-4-methylenecyclohexane-1,3-diol], the activation at 1 µM in experiment [1] was ≥ 20%. In addition, in experiment [2], the EC50 lay within 10 to 100 nM.
Turning to `C=C1[C@H](O)CC(=C/C=C2\CCC[C@]3(C)[C@@H]([C@H](C)CN4CCO[C@H](C(F)F)C4)CC[C@@H]23)C[C@H]1O` [Compound D007, (1R,3R)-5-(2-((1R,3aS,7aR,E)-1-((S)-1-((S)-2-(difluoromethyl)morpholino)propan-2-yl)-7a-methyloctahydro-4H-inden-4-ylidene)ethylidene)-2-methylenecyclohexane-1,3-diol], in experiment [1], the activation at 1 µM was ≥ 20%. In addition, the EC50 in experiment [2] was in the range of 1 to 10 nM.
In the same order, the values of `C=C1[C@H](O)CC(=C/C=C2\CCC[C@]3(C)[C@@H]([C@H](C)CN4CCO[C@@H](C(F)F)C4)CC[C@@H]23)C[C@H]1O` [Compound D008, (1R,3R)-5-(2-((1R,3aS,7aR,E)-1-((S)-1-((R)-2-(difluoromethyl)morpholino)propan-2-yl)-7a-methyloctahydro-4H-inden-4-ylidene)ethylidene)-2-methylenecyclohexane-1,3-diol] are ≥ 20% and 1 to 10 nM.
With `C=C1[C@H](O)CC(=C/C=C2\CCC[C@]3(C)[C@@H]([C@H](C)CN4CCOC5(CCCC5)C4)CC[C@@H]23)C[C@H]1O` [Compound D012, (1R,3R)-5-(2-((1R,3aS,7aR,E)-1-((S)-1-(6-oxa-9-azaspiro[4.5]decan-9-yl)propan-2-yl)-7a-methyloctahydro-4H-inden-4-ylidene)ethylidene)-2-methylenecyclohexane-1,3-diol], the activation at 1 µM in experiment [1] is ≥ 20%. Besides, the EC50 in experiment [2] is 1 to 10 nM.
For the molecule `C=C1[C@H](O)CC(=C/C=C2\CCC[C@]3(C)[C@@H]([C@H](C)CN4C[C@@H](C)OC[C@H]4C)CC[C@@H]23)C[C@H]1O` [Compound D017, (1R,3R)-5-(2-((1R,3aS,7aR,E)-1-((S)-1-((2R,5R)-2,5-dimethylmorpholino)propan-2-yl)-7a-methyloctahydro-4H-inden-4-ylidene)ethylidene)-2-methylenecyclohexane-1,3-diol], in experiment [1], the activation at 1 µM is ≥ 20%. This molecule returned an EC50 in experiment [2] of 10 to 100 nM.
As to `C=C1[C@H](O)CC(=C/C=C2\CCC[C@]3(C)[C@@H]([C@H](C)CCN4CCO[C@@H](C)C4)CC[C@@H]23)C[C@H]1O` [Compound D025, (1R,3R)-5-(2-((1R,3aS,7aR,E)-7a-methyl-1-((R)-4-((S)-2-methylmorpholino)butan-2-yl)octahydro-4H-inden-4-ylidene)ethylidene)-2-methylenecyclohexane-1,3-diol], in experiment [1], the activation at 1 µM was ≥ 20%. Moreover, in experiment [2], the EC50 lay within 10 to 100 nM.
`C=C1[C@H](O)CC(=C/C=C2\CCC[C@]3(C)[C@@H]([C@H](C)CCN4CCOC(C)(C)C4)CC[C@@H]23)C[C@H]1O` [Compound D029, (1R,3R)-5-(2-((1R,3aS,7aR,E)-1-((R)-4-(2,2-dimethylmorpholino)butan-2-yl)-7a-methyloctahydro-4H-inden-4-ylidene)ethylidene)-2-methylenecyclohexane-1,3-diol]: the activation at 1 µM in experiment [1] is ≥ 20%. The molecule also gave an EC50 in experiment [2] of 1 to 10 nM.
